Laboratory results: patent US20260069584A1, “METHODS OF TREATING CHRONIC MYELOID LEUKEMIA USING THE TYROSINE KINASE INHIBITOR VODOBATINIB” (Sun Pharma Advanced Research Company Ltd., priority 2022, published 2026)

Test: Part B: safety, treatment-emergent adverse events, DLT and MTD
Type: in vivo
From the text: For the purpose of the present invention, the adverse events were graded as per the National Cancer Institute's, Common Terminology Criteria for Adverse Events (NCI-CTCAE) Version 4.03 and Version 5.0 (https://evs.nci.nih.gov/ftp1/CTCAE/About.html). It is a descriptive terminology which can be utilized for Adverse Event (AE) reporting.
AEs were graded as per NCI-CTCAE Version 5.0. In the present study, along with others most common AEs for which patients were monitored were thrombocytopenia, neutropenia and anemia, any AE reported by the patient after the completion of AE collection period and considered related to the study drug was reported.
Dose Limiting Toxicity (DLT) is defined as the occurrence of any of the following unless clearly and incontrovertibly related to the underlying disease. The hematological DLTs were defined as per the Phase of CML: • a) Grade 3 or higher, or other non-hematological toxicity, including nausea, vomiting and diarrhea, and refractory to standard antiemetic therapy except alopecia and nail disorders; • b) Missed ≥25% of doses over 28 days due to toxicity in Cycle 1; and • c) Any grade of toxicity requiring dose reduction or discontinuation of IMP within the 28-days DLT assessment period (Cycle 1).
Safety Parameters: Parts B and C: Descriptive summaries were provided for the safety variables collected. Continuous variables were summarized using mean, standard deviation, minimum, median, and maximum. Categorical variables were summarized using frequency counts and percentages. For time-to-event variables, other percentiles were presented. In addition, summaries of AEs by intensity, seriousness, frequency, and relationship to IMP are presented. Adverse events (AE) s were coded using the Medical Dictionary for Regulatory Activities (MedDRA) and summarized by System Organ Class (SOC) and Preferred Term (PT).
In this study, the dose-escalation cohort started with an accelerated titration study design (ATD) and shifted to a 3±3 design when subjects in the preceding ATD cohort experienced either grade 2 or higher adverse events (AEs) or dose-limiting toxicity (DLT) during Cycle 1 that was not clearly and incontrovertibly related to the underlying disease or concomitant medications. The DLT period consisted of 28 days (Cycle 1). Subjects experiencing DLTs were managed with dose delays and/or discontinuation and continued in the study until disease progression. Decisions to advance to a succeeding dose level occurred after the evaluation of safety and tolerability data for a given dose level.
For the cohorts, where the 3±3 design applies, 3 subjects were enrolled initially. If 2 of these subjects experienced a Grade 2 or more toxicity (that was not clearly and incontrovertibly related to the underlying disease or concomitant medications), subsequent cohorts were escalated according to smaller increments. Further, if there were no DLTs in the first 3 subjects, dose escalation to the next higher dose level was allowed to proceed. If 1 of the 3 subjects experienced a DLT, that dose level was expanded to 6 subjects (3 additional subjects were enrolled). If 2 subjects at a given dose level experienced a DLT, the MTD was considered to have been exceeded. The next lower dose level was expanded to 6 subjects, or if 6 subjects had already been enrolled and no more than 1 of the 6 subjects experienced a DLT, then this lower dose level was considered the MTD. Additional subjects were enrolled in dose escalation cohorts for further assessment of safety and efficacy of the compound of Formula 1 at doses that were tolerated (i.e., doses that have <2 DLTs in 6 enrolled subjects or <1 DLT in 3 enrolled subjects). Thus 204 mg was arrived at as MTD. A subject experiencing a DLT was allowed to continue therapy with a reduced dose. Subjects who experienced a DLT and recovered were treated at the next lower dose level until disease progression or other events requiring further dose reduction existed. […]

Structure (SMILES): Cc1ccc(C(=O)NNC(=O)c2c(C)cccc2Cl)cc1C#Cc1cnc2ccccc2c1 [compound of Formula I, N′-(2-chloro-6-methylbenzoyl)-4-methyl-3-[2-(3-quinolyl)ethynyl]-benzohydrazide]
- anemia (grade 3 or 4): 13%
- diarrhea (grade 3 or 4): 2%
- thrombocytopenia (grade 3 or 4): 18.8%
- deaths during the study (human, in vivo): 5
- daily doses at which dose-limiting toxicities were present (human, in vivo, 28 days): 240 mg
- dose modification (of patients): 20.7%
- temporary dose interruptions (of patients): 37.7%
- MTD (maximum tolerated dose) (oral, once daily): 204 mg
- deaths considered related to the compound (out of 5 deaths): 1
- TEAEs, any grade (overall 53 patients): 96.2%
- grade 3 or 4 TEAEs (overall 53 patients): 64.1%
- highest efficacious and tolerable daily dose (patients with prior TKI exposure, mutations and ACAs): 204 mg
- All TEAEs, Any grade (≤2 prior TKIs (N = 18)): 16 No of pts
- All TEAEs, Grade 3/4 (≤2 prior TKIs (N = 18)): 6 No of pts
- Amylase increased, Any grade (≤2 prior TKIs (N = 18)): 0 No of pts
- Amylase increased, Grade 3/4 (≤2 prior TKIs (N = 18)): 0 No of pts
- Anemia, Any grade (≤2 prior TKIs (N = 18)): 2 No of pts
- Anemia, Grade 3/4 (≤2 prior TKIs (N = 18)): 2 No of pts
- Back pain, Any grade (≤2 prior TKIs (N = 18)): 1 No of pts
- Back pain, Grade 3/4 (≤2 prior TKIs (N = 18)): 0 No of pts
- Constipation, Any grade (≤2 prior TKIs (N = 18)): 2 No of pts
- Constipation, Grade 3/4 (≤2 prior TKIs (N = 18)): 0 No of pts
- Cough, Any grade (≤2 prior TKIs (N = 18)): 3 No of pts
- Cough, Grade 3/4 (≤2 prior TKIs (N = 18)): 0 No of pts
- Death, Any grade (≤2 prior TKIs (N = 18)): 3 No of pts
- Death, Grade 3/4 (≤2 prior TKIs (N = 18)): 0 No of pts
- Decreased appetite, Any grade (≤2 prior TKIs (N = 18)): 1 No of pts
- Decreased appetite, Grade 3/4 (≤2 prior TKIs (N = 18)): 0 No of pts
- Diarrhoea, Any grade (≤2 prior TKIs (N = 18)): 1 No of pts
- Diarrhoea, Grade 3/4 (≤2 prior TKIs (N = 18)): 0 No of pts
- Fatigue, Any grade (≤2 prior TKIs (N = 18)): 2 No of pts
- Fatigue, Grade 3/4 (≤2 prior TKIs (N = 18)): 0 No of pts
- Headache, Any grade (≤2 prior TKIs (N = 18)): 1 No of pts
- Headache, Grade 3/4 (≤2 prior TKIs (N = 18)): 0 No of pts
- Lipase increased, Any grade (≤2 prior TKIs (N = 18)): 0 No of pts
- Lipase increased, Grade 3/4 (≤2 prior TKIs (N = 18)): 0 No of pts
- Myalgia, Any grade (≤2 prior TKIs (N = 18)): 1 No of pts
- Myalgia, Grade 3/4 (≤2 prior TKIs (N = 18)): 0 No of pts
- Nasopharyngitis, Any grade (≤2 prior TKIs (N = 18)): 3 No of pts
- Nasopharyngitis, Grade 3/4 (≤2 prior TKIs (N = 18)): 0 No of pts
- Nausea, Any grade (≤2 prior TKIs (N = 18)): 0 No of pts
- Nausea, Grade 3/4 (≤2 prior TKIs (N = 18)): 0 No of pts
- Neutropenia, Any grade (≤2 prior TKIs (N = 18)): 2 No of pts
- Neutropenia, Grade 3/4 (≤2 prior TKIs (N = 18)): 2 No of pts
- Pruritis, Any grade (≤2 prior TKIs (N = 18)): 2 No of pts
- Pruritis, Grade 3/4 (≤2 prior TKIs (N = 18)): 0 No of pts
- Pyrexia, Any grade (≤2 prior TKIs (N = 18)): 2 No of pts
- Pyrexia, Grade 3/4 (≤2 prior TKIs (N = 18)): 0 No of pts
- Rhinitis, Any grade (≤2 prior TKIs (N = 18)): 2 No of pts
- Rhinitis, Grade 3/4 (≤2 prior TKIs (N = 18)): 0 No of pts
- SAEs, Any grade (≤2 prior TKIs (N = 18)): 6 No of pts
- SAEs, Grade 3/4 (≤2 prior TKIs (N = 18)): 2 No of pts
- TEAEs Leading to drug withdrawal, Any grade (≤2 prior TKIs (N = 18)): 3 No of pts
- TEAEs Leading to drug withdrawal, Grade 3/4 (≤2 prior TKIs (N = 18)): 0 No of pts
- TEAEs Related to comp of Formula I, Any grade (≤2 prior TKIs (N = 18)): 12 No of pts
- TEAEs Related to comp of Formula I, Grade 3/4 (≤2 prior TKIs (N = 18)): 3 No of pts
- TEAEs: Dose discontinued and restarted, Any grade (≤2 prior TKIs (N = 18)): 5 No of pts
- TEAEs: Dose discontinued and restarted, Grade 3/4 (≤2 prior TKIs (N = 18)): 2 No of pts
- TEAEs: Dose modifications, Any grade (≤2 prior TKIs (N = 18)): 1 No of pts
- TEAEs: Dose modifications, Grade 3/4 (≤2 prior TKIs (N = 18)): 1 No of pts
- Thrombocytopenia, Any grade (≤2 prior TKIs (N = 18)): 7 No of pts
- Thrombocytopenia, Grade 3/4 (≤2 prior TKIs (N = 18)): 3 No of pts
- Vomiting, Any grade (≤2 prior TKIs (N = 18)): 0 No of pts
- Vomiting, Grade 3/4 (≤2 prior TKIs (N = 18)): 0 No of pts
- All TEAEs, Any grade (≥3 prior TKIs (N = 35)): 35 No of pts
- All TEAEs, Grade 3/4 (≥3 prior TKIs (N = 35)): 28 No of pts
- Amylase increased, Any grade (≥3 prior TKIs (N = 35)): 5 No of pts
- Amylase increased, Grade 3/4 (≥3 prior TKIs (N = 35)): 4 No of pts
- Anemia, Any grade (≥3 prior TKIs (N = 35)): 9 No of pts
- Anemia, Grade 3/4 (≥3 prior TKIs (N = 35)): 5 No of pts
- Back pain, Any grade (≥3 prior TKIs (N = 35)): 6 No of pts
- Back pain, Grade 3/4 (≥3 prior TKIs (N = 35)): 0 No of pts
- Constipation, Any grade (≥3 prior TKIs (N = 35)): 6 No of pts
- Constipation, Grade 3/4 (≥3 prior TKIs (N = 35)): 0 No of pts
- Cough, Any grade (≥3 prior TKIs (N = 35)): 8 No of pts
- Cough, Grade 3/4 (≥3 prior TKIs (N = 35)): 0 No of pts
- Death, Any grade (≥3 prior TKIs (N = 35)): 2 No of pts
- Death, Grade 3/4 (≥3 prior TKIs (N = 35)): 0 No of pts
- Decreased appetite, Any grade (≥3 prior TKIs (N = 35)): 5 No of pts
- Decreased appetite, Grade 3/4 (≥3 prior TKIs (N = 35)): 0 No of pts
- Diarrhoea, Any grade (≥3 prior TKIs (N = 35)): 11 No of pts
- Diarrhoea, Grade 3/4 (≥3 prior TKIs (N = 35)): 1 No of pts
- Fatigue, Any grade (≥3 prior TKIs (N = 35)): 5 No of pts
- Fatigue, Grade 3/4 (≥3 prior TKIs (N = 35)): 0 No of pts
- Headache, Any grade (≥3 prior TKIs (N = 35)): 7 No of pts
- Headache, Grade 3/4 (≥3 prior TKIs (N = 35)): 0 No of pts
- Lipase increased, Any grade (≥3 prior TKIs (N = 35)): 5 No of pts
- Lipase increased, Grade 3/4 (≥3 prior TKIs (N = 35)): 4 No of pts
- Myalgia, Any grade (≥3 prior TKIs (N = 35)): 6 No of pts
- Myalgia, Grade 3/4 (≥3 prior TKIs (N = 35)): 0 No of pts
- Nasopharyngitis, Any grade (≥3 prior TKIs (N = 35)): 3 No of pts
- Nasopharyngitis, Grade 3/4 (≥3 prior TKIs (N = 35)): 0 No of pts
- Nausea, Any grade (≥3 prior TKIs (N = 35)): 8 No of pts
- Nausea, Grade 3/4 (≥3 prior TKIs (N = 35)): 0 No of pts
- Neutropenia, Any grade (≥3 prior TKIs (N = 35)): 6 No of pts
- Neutropenia, Grade 3/4 (≥3 prior TKIs (N = 35)): 5 No of pts
- Pruritis, Any grade (≥3 prior TKIs (N = 35)): 4 No of pts
- Pruritis, Grade 3/4 (≥3 prior TKIs (N = 35)): 0 No of pts
- Pyrexia, Any grade (≥3 prior TKIs (N = 35)): 6 No of pts
- Pyrexia, Grade 3/4 (≥3 prior TKIs (N = 35)): 1 No of pts
- Rhinitis, Any grade (≥3 prior TKIs (N = 35)): 4 No of pts
- Rhinitis, Grade 3/4 (≥3 prior TKIs (N = 35)): 0 No of pts
- SAEs, Any grade (≥3 prior TKIs (N = 35)): 14 No of pts
- SAEs, Grade 3/4 (≥3 prior TKIs (N = 35)): 10 No of pts
- TEAEs Leading to drug withdrawal, Any grade (≥3 prior TKIs (N = 35)): 3 No of pts
- TEAEs Leading to drug withdrawal, Grade 3/4 (≥3 prior TKIs (N = 35)): 2 No of pts
- TEAEs Related to comp of Formula I, Any grade (≥3 prior TKIs (N = 35)): 23 No of pts
- TEAEs Related to comp of Formula I, Grade 3/4 (≥3 prior TKIs (N = 35)): 11 No of pts
- TEAEs: Dose discontinued and restarted, Any grade (≥3 prior TKIs (N = 35)): 15 No of pts
- TEAEs: Dose discontinued and restarted, Grade 3/4 (≥3 prior TKIs (N = 35)): 10 No of pts
- TEAEs: Dose modifications, Any grade (≥3 prior TKIs (N = 35)): 10 No of pts
- TEAEs: Dose modifications, Grade 3/4 (≥3 prior TKIs (N = 35)): 5 No of pts
- Thrombocytopenia, Any grade (≥3 prior TKIs (N = 35)): 17 No of pts
- Thrombocytopenia, Grade 3/4 (≥3 prior TKIs (N = 35)): 7 No of pts
- Vomiting, Any grade (≥3 prior TKIs (N = 35)): 7 No of pts
- Vomiting, Grade 3/4 (≥3 prior TKIs (N = 35)): 0 No of pts
